Measurements published in PMC12474041 (Toxins, 2025).
Like-named read-outs stand apart in the source and are kept apart here. Bridge positions count the residues as written; N and C are the ends.

Columns and labels:
Nav1.4 [1] = target: T1, Nav1.4 (Homo sapiens, UniProt P35499); parameters: expressed in transfected cells; host or cells: HEK cells; conditions: cited from earlier work
Nav1.5 [2] = conditions: cited from earlier work
[3] = cited from earlier work
[4] = tested on: DIII S6 and DIV S6 of the sodium channel pore domain; conditions: cited from earlier work
patients with NDM = conditions: cited from earlier work
Nav1.5 [5] = experiment: Whole-cell patch clamp, Nav1.5 in transfected HEK cells; conditions: room temperature, currents evoked at 0 mV, held at −80 mV
Method: (§1) Plasmids containing sodium channels or potassium channels were transfected into HEK cells (gifted from Rong’s lab at Hunan Normal University, Changsha, China [32]) using Lipofectamine 2000. After 24 h, whole-cell patch clamp recordings were made at room temperature. Using a drawn borosilicate glass electrode (resistance 3–5 MΩ) filled with intracellular solution, the current of the transfected cells was assessed using the MultiClamp 700B amplifier (Molecular Devices, Sunnyvale, America) and pCLAMP 10 software. We set the clamping voltage to −80 mV and the stimulation voltage to 0 mV.
(§2) The extracellular solution used to record the sodium ion channels included the following components (in mM): 150 NaCl, 2 KCl, 1.5 CaCl2, 1 MgCl2, and 10 HEPES, and the pH was adjusted to 7.4 with NaOH. To record the potassium ion channel, the extracellular solution contained (in mM) 140 NaCl, 2 KCl, 1.5 CaCl2, 1 MgCl2, and 10 HEPES, and the pH was adjusted to 7.4 using NaOH. The intracellular solution that recorded the sodium ion channel currents contained 10 mM NaCl, 10 mM EGTA, 135 mM CsCl, and 10 mM HEPES, and the pH was adjusted to 7.3 with CsOH. To record the potassium ion channel currents, the intracellular solution contained 10 mM EGTA, 140 mM KCl, 2.5 mM MgCl2, and 10 mM HEPES, and the pH was adjusted to 7.4 using NaOH.

Kv1.4 = experiment: Whole-cell patch clamp, Kv1.4 in transfected HEK cells; conditions: 50 μM, room temperature, currents evoked at 0 mV, held at −80 mV
Method: as §1, §2

Nav1.7 = experiment: Whole-cell patch clamp, Nav1.7 in transfected HEK cells; conditions: room temperature, currents evoked at 0 mV, held at −80 mV
Method: as §1, §2

Kv1.3 = experiment: Whole-cell patch clamp, Kv1.3 in transfected HEK cells; conditions: 50 μM, room temperature, currents evoked at 0 mV, held at −80 mV
Method: as §1, §2

Kv4.2 = experiment: Whole-cell patch clamp, Kv4.2 in transfected HEK cells; conditions: 50 μM, room temperature, currents evoked at 0 mV, held at −80 mV
Method: as §1, §2

Nav1.4 [6] = target: T1, Nav1.4; experiment: Whole-cell patch clamp, Nav1.4 in transfected HEK cells
Method: as §1, §2

[7] = tested on: N-type (Cav2.2) calcium channels; conditions: cited from earlier work
[8] = tested on: G-protein-coupled GABAB receptors; conditions: cited from earlier work

T1 sequence (P35499 whole entry): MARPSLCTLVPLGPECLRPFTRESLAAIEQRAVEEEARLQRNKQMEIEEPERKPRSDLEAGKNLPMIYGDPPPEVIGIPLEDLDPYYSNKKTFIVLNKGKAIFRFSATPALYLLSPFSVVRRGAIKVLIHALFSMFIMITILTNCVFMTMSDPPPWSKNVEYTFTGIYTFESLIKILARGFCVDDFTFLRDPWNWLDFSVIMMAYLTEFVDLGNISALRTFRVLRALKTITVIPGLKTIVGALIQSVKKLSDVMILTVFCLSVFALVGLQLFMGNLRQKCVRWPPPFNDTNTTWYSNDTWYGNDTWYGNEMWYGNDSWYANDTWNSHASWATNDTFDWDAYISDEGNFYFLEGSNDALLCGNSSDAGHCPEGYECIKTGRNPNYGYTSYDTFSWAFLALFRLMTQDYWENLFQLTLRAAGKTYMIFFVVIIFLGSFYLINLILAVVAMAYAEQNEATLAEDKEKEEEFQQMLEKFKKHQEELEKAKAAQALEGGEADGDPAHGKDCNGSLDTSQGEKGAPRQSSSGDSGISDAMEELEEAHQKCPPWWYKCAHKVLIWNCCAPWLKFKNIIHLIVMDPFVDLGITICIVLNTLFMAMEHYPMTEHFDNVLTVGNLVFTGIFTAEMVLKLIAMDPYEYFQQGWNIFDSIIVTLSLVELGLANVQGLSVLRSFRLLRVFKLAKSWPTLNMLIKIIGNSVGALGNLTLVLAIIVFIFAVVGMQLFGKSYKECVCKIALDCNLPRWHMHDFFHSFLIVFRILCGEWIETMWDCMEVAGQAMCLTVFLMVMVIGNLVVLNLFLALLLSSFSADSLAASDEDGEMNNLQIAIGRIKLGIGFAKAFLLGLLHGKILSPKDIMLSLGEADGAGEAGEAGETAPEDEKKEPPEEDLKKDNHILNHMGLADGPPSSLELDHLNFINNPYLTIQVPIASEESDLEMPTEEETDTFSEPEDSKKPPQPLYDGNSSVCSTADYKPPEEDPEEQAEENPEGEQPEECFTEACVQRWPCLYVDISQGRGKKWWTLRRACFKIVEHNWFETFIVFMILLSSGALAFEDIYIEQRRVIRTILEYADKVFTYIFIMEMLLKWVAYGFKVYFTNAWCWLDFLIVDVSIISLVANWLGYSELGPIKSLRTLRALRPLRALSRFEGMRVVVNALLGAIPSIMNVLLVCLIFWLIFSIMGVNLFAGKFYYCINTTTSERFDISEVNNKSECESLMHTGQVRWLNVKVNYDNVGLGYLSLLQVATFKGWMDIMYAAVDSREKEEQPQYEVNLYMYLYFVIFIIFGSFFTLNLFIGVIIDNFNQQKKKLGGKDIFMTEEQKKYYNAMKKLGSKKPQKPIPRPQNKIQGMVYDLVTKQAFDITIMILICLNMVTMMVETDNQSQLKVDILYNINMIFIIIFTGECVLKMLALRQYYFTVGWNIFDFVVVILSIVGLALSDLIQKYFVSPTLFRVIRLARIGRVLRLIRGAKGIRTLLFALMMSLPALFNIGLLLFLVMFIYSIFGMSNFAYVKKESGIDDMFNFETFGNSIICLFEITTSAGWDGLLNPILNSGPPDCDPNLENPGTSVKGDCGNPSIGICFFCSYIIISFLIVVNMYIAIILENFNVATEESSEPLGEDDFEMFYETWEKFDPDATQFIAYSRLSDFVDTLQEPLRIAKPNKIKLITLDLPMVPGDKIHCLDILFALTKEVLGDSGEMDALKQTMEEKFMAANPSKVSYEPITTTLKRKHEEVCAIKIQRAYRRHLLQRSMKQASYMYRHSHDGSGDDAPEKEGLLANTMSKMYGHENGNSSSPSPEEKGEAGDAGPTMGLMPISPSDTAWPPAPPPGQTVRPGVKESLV

Compound: ATX-II
- EC50 (Nav1.4 [1]): 109 nM
- EC50 (Nav1.5 [2]): 49 nM

Compound: Cc1cccc(C)c1OCC(C)N (stereo not drawn) [mexiletine]
- side effects ([3]; sensitivity of different patients varies greatly): indigestion
- binding site on sodium channel [4]: binds to DIII S6 and DIV S6 of the sodium channel pore domain
- effect on muscle stiffness (patients with NDM; patients with NDM): improving muscle stiffness in patients with NDM

Compound: GEFINGDCELPKVVGPCRAGFRRYYYNSSSKRCEKFIYGGCRGNANNFHTLEECEKVCGVRS (disulfide 8-58, 17-41, 33-54 (inferred)) [Avd3i, U-actitoxin-Avd3i]
- effect on Nav1.5 (Nav1.5 [5]): did not inhibit
- effect on Kv1.4 (Kv1.4): no effect
- effect on Nav1.7 (Nav1.7): did not inhibit
- effect on Kv1.3 (Kv1.3): no effect
- effect on Kv4.2 (Kv4.2): no effect
- IC50 (Nav1.4 [6]): 25400 nM
- inhibition of Nav1.4 channel at 50.0 μM (Nav1.4 [6]; 50.0 μM perfusion, transfected HEK cells, room temperature, holding −80 mV, stimulation 0 mV): suppressed
- concentration dependence of Nav1.4 inhibition (Nav1.4 [6]; transfected HEK cells, whole-cell patch clamp): concentration-dependent manner

Compound: Vc1.1
- direct binding to Cav2.2 [7]: do not directly bind
- inhibition of Cav2.2 channel function [7]: indirectly inhibit channel function
- binding to GABAB receptors [8]: binding to G-protein-coupled GABAB receptors

Compound: Cc1cccc(C)c1NC(=O)C(C)N (stereo not drawn) [Tocainide, tocainide]
- side effects ([3]; can be fatal): anemia, agranulocytosis, pulmonary fibrosis, interstitial pneumonia, and pulmonary edema

Compound: O=C(NCC1CCCCN1)c1cc(OCC(F)(F)F)ccc1OCC(F)(F)F (stereo not drawn) [flecainide]
- efficacy in patients with NDM (patients with NDM): effective in some patients with NDM
